Reference: paper PMC11094793, “Discovery of LLC0424 as a Potent and Selective in Vivo NSD2 PROTAC Degrader” (Journal of Medicinal Chemistry, 2024)

Columns and labels:
SEM cells = test: Cell viability assay (CellTiter-Glo, 7 days), SEM; assay type: cell-based, human; settings: Homo sapiens, 168 h, read-out: IC50 (growth, cell viability)
Description: Cells were plated in 50 μL of the corresponding media in 96-well plates. A 2-fold dilution series of 2* concentrated LLC0424 was prepared in a medium with the highest concentration being 60 μM. Then 50 μL of the 2× compound-containing mixture was added to each well with 6 replicates for each concentration, reaching 1× concentration, with the highest concentration being 30 μM. The plate was incubated for 7 days. At the end point, the CellTiter-Glo assay (Promega) was then performed according to the manufacturer’s instruction to determine cell proliferation. The luminescence signal intensity of each well was acquired on an Infinite M1000Pro microplate reader and the data was analyzed using GraphPad Prism software (GraphPad Software).

RPMI-8402 cells = test: TMT global proteomics in RPMI-8402 cells; assay type: cell-based, human; settings: for Abundance Ratio (log2): (LLC0424) / (DMSO): RPMI-8402
Description: (§1) We conducted a global proteomic assay using tandem mass tags (TMT) labeled mass-spectrometry to unbiasedly quantify the protein change upon LLC0424 treatment in VCaP and RPMI-8402 cells. […] We further used SEM cell line to cross-validate the selectivity of LLC0424 for NSD2 over NSD1 and NSD3 as well as CRBN neo-substrates IKZF1, IKZF3, GSPT1, and CK-1α using immunoblotting. […] When we increased the treatment time of LLC0424 in SEM cells, we observed mild decrease of GSPT1 from 12 h (SI, Figure S3F).
RPMI-8402 cells were plated at 10 × 10^6 cells per plate on 10 cm tissue culture plates overnight before treating with DMSO (control) or 2 μM LLC0424 with 3 replicates for each treatment. After 8 h, whole cell lysates were collected using RIPA buffer (ThermoFisher Scientific) and quantified using Pierce Bovine Serum Albumin Standard Pre-Diluted Set (ThermoFisher Scientific). Cell lysates were proteolyzed and labeled with TMT 6-plex Isobaric Label Reagent (ThermoFisher Scientific) according to the protocol from the manufacturer and subjected to 8 fractions of liquid chromatography–mass spectrometry (LC-MS)/MS analysis as described.[33] We plotted the results using graphpad prism. To gain protein changes with high confidence, we screened the results of (LC-MS)/MS analysis with the criteria of peptides number >4 and unique peptides number >1. […]
Figure S3. LLC0424 was a selective NSD2 degrader. […]

[1] = test system: NSD2-overexpressed SEM cells; test: Viability of NSD2-overexpressed versus parental SEM cells; assay type: cell-based, human; settings: 2 μM LLC0424, 9 days, CTG assay
Description: NSD2 is the primary methyltransferase that transfers dimethyl to H3K36 in ALL with NSD2 gain-of-function mutation. Therefore, the effects of LLC0424 on H3K36me2 was evaluated in SEM and RPMI-8402 cells. […] Meanwhile, LLC0424 treatment also led to downregulation of H3K36Me2 in RPMI-8402 cells within 24 h (Figure 6B). […] We also conducted a colony formation assay to evaluate the effect of LLC0424 on the stem cell-like property of the leukemia cells. […]
Figure S4. […] (A) SEM or RPMI-8402 cells were treated with 2 µM LLC0424, degrader 6, degrader 7, or DMSO for 9 days and quantified for cell viability by CellTiter-Glo (CTG) assay at different days. Data are reported as the mean of five independent experiments ± SD; (B) RNA sequencing of SEM cells treated with LLC0424N or DMSO; (C) Immunoblotting of NSD2, and H3 in parental and NSD2-overexpression SEM cell lines; (D) parental or NSD2 overexpression SEM cells were treated with DMSO or 2 µM LLC0424 for 9 days and quantified for cell viability by CTG assay. Data are reported as the mean of four independent experiments ± SD; (E) VCaP cells and 22RV1 cells were treated with DMSO, 2 µM LLC0424, or 2 µM LLC0424N for 18 days and quantified for cell viability by CTG assay at different days. […]

[2] = test system: CRBN neo-substrates IKZF1, IKZF3, GSPT1, and CK-1α; test: Selectivity immunoblotting in SEM cells: CRBN neo-substrates; assay type: cell-based, human; settings: 2 μM, 8 h
Description: as §1
(§2) After treatment, the cultured cells were collected and rinsed with phosphate-buffered saline (PBS) in room temperature. The cells were treated with RIPA buffers (ThermoFisher Scientific) supplemented with Halt Protease and Phosphatase Inhibitor Cocktail (ThermoFisher Scientific). After sonication and centrifugation, the total amount of protein in the cell lysates was measured by Pierce Bovine Serum Albumin Standard Pre-Diluted Set (ThermoFisher Scientific). After mixed with LDS-sample buffer (Invitrogen) supplemented with Sample Reducing Agent (Invitrogen) and heated in 70 °C for 10 min, equal amount of protein was loaded into NuPAGE 4–12%, Bis-Tris Protein Gel (ThermoFisher Scientific) or NuPAGE 3–8%, Tris-Acetate Protein Gel (ThermoFisher Scientific), and blotted with primary antibodies. […]

NSD1 = biological target: T1, NSD1 (Homo sapiens, UniProt Q96L73); test: Selectivity immunoblotting in SEM cells: NSD1; assay type: cell-based; settings: 2 μM, 8 h
T1 construct: endogenous in cells; host or cells: SEM
T1 sequence (Q96L73 whole entry): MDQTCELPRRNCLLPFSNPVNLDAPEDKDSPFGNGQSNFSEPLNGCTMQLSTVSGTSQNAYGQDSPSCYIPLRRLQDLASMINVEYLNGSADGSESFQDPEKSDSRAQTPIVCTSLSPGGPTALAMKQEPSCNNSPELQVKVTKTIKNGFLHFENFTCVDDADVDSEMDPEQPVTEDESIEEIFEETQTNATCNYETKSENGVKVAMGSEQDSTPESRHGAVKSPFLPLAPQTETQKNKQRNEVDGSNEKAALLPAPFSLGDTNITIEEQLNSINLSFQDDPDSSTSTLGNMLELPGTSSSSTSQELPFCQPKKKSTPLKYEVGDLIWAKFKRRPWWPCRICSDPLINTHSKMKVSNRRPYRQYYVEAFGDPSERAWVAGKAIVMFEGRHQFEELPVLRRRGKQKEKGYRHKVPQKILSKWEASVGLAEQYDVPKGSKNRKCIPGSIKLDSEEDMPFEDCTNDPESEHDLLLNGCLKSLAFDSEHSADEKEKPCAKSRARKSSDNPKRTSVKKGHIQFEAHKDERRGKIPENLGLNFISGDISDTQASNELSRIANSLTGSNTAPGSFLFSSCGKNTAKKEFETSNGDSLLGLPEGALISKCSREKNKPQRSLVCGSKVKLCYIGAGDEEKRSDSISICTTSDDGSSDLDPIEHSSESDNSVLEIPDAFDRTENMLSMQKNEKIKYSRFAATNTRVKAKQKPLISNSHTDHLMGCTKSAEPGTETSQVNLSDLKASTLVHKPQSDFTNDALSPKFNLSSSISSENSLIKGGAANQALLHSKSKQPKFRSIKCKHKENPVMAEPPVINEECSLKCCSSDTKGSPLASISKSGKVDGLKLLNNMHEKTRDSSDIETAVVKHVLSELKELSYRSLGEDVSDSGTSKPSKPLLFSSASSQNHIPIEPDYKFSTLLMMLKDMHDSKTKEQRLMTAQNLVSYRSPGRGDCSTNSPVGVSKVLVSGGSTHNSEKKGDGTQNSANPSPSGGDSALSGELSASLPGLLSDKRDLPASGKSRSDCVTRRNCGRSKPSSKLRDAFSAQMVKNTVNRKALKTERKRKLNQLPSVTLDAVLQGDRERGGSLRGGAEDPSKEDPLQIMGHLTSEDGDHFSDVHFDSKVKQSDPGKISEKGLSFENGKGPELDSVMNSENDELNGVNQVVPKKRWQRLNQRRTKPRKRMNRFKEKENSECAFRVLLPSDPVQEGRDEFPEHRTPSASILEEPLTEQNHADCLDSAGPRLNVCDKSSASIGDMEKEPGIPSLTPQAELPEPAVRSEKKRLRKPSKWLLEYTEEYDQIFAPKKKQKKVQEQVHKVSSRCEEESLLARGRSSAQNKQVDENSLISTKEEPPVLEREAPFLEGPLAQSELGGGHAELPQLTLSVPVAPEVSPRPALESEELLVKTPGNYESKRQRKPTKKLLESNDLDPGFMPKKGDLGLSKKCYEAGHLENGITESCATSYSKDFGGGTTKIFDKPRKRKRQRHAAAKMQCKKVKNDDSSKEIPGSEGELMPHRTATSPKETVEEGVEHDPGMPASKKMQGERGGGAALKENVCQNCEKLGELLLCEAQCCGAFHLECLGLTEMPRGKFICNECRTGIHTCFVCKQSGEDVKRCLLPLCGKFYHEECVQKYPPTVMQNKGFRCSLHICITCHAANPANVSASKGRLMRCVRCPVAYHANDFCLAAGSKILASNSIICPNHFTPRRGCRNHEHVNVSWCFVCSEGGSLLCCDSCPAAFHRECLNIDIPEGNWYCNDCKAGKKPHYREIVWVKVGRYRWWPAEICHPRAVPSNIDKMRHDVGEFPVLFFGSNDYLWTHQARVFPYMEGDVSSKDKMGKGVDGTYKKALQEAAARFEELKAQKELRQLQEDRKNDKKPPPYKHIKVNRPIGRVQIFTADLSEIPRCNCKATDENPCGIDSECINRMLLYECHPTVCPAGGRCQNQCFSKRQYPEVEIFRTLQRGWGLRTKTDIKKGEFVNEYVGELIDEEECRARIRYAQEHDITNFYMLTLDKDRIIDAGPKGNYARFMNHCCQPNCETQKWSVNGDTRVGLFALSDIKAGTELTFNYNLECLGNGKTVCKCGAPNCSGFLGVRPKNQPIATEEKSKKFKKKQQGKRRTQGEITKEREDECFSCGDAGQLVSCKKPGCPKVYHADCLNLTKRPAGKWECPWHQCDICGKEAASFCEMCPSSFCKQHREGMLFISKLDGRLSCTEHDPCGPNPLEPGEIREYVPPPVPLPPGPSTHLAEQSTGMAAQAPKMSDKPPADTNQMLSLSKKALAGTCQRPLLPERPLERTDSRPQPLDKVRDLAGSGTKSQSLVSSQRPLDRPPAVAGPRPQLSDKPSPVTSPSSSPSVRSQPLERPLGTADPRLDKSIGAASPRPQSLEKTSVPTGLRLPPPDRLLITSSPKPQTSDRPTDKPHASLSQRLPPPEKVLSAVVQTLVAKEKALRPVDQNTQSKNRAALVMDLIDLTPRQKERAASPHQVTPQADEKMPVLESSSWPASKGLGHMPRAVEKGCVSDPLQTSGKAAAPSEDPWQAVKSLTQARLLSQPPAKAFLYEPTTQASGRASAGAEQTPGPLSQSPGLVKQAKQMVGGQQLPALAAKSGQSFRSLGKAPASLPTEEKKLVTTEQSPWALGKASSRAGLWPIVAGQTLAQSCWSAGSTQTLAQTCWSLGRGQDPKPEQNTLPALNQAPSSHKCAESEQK
Description: as §1, §2

NSD1 protein level (NSD1): remained unchanged
Compound: O=C1CCC(N2C(=O)c3ccc(N4CCC(NC(=O)c5ccc(NC(=O)c6ccc(CN(C(=O)c7ccc8c(c7)OCC(=O)N8)C7CC7)cc6)cc5)CC4)cc3C2=O)C(=O)N1 (stereo not shown) [compound 10l, N-Cyclopropyl-N-(4-((4-((1-(2-(2,6-dioxopiperidin-3-yl)-1,3-dioxoisoindolin-5-yl)piperidin-4-yl)carbamoyl)phenyl)carbamoyl)benzyl)-3-oxo-3,4-dihydro-2H-benzo[b][1,4]oxazine-7-carboxamide]
IC50 (SEM cells): 3.56 µM
Abundance Ratio (log2): (LLC0424) / (DMSO) (RPMI-8402 cells; protein accession P35579): 0.04
Abundance Ratio (log2): (LLC0424) / (DMSO) (RPMI-8402 cells; protein accession P78527): -0.02
Abundance Ratio (log2): (LLC0424) / (DMSO) (RPMI-8402 cells; protein accession Q01082): 0.05
Abundance Ratio (log2): (LLC0424) / (DMSO) (RPMI-8402 cells; protein accession Q13813): 0.03
Abundance Ratio (log2): (LLC0424) / (DMSO) (RPMI-8402 cells; protein accession Q14204): 0.05
number of proteins significantly decreased in global proteomics (RPMI-8402 cells; RPMI-8402 cells, 2 μM): 3
cell viability in NSD2-overexpressed versus parental SEM cells [1]: significantly higher in NSD2-overexpressed SEM cells
CRBN neo-substrates protein level [2]: remained unchanged
